Data reported in PMC11063903, “Engineering a human P2X2 receptor with altered ligand selectivity in yeast” (The Journal of Biological Chemistry, 2024).
Positions count from the first letter of the chain named.

Key:
[1] = molecular target: T1, P2X2 F301W+F303Y (Homo sapiens, UniProt Q9UBL9, F301W/F303Y); assay: Fast GCaMP-mScarletI assay in yeast, P2X2 F301W+F303Y; assay type: cell-based; conditions: n = 3; for Bottom, best fit value / Hillslope, best fit value / Top, best fit value: four-parameter logistic fit of ΔF/ΔT; for EC50: four-parameter logistic fit, unit inferred, unit M, read-out: EC50, best fit value
T1 construct: expressed in transfected cells; host or cells: S. cerevisiae BY4741 background
T1 sequence (Q9UBL9 1-471 F301W/F303Y): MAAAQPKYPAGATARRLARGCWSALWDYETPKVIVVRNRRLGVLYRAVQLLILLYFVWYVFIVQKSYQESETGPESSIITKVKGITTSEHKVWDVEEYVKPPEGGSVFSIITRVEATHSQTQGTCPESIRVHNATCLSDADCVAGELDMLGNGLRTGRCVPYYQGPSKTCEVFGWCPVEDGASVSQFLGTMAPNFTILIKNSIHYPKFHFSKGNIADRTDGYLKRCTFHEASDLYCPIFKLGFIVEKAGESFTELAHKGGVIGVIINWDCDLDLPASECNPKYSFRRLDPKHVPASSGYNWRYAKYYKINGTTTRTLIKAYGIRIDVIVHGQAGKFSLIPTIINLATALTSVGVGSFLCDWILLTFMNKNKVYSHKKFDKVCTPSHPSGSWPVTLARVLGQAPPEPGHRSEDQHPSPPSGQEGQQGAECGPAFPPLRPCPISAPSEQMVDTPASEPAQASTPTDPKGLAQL
Method: (§1) Figure 4 Unnatural-ligand gating in LBD libraries.A, WT P2X2 was tested with 1 mM ATP, 500 μM AMP-PNP, and compared to ATP with the broken receptor (K81C K83C) control with 1 mM ATP in the fast GCaMP-mScarletI assay (n = 3). […] B, heat map summarizing AMP-PNP signaling (ΔF/ΔT, fast GCaMP-mScarletI assay) in the site-saturation libraries (n = 2–3). All values are normalized to WT P2X2 with saturating amounts of AMP-PNP (500 μM) and therefore represent low signal (ΔF/ΔT) compared to the ATP ligand. C, F301W, F303Y, and A304W were combinatorially combined and tested against the WT, K81C K83C broken P2X2, and the single mutant clones with both ATP (1 mM, black) and AMP-PNP (500 μM, pink). […] Values here represent signal onset and are not normalized to a positive control (n = 2–5). D–K, dose response of each P2X variant with both ATP (black) and AMP-PNP (pink) in the fast GCaMP-mScarletI assay (n = 3). Statistics were performed via one-way ANOVA with Dunnett’s multiple comparisons with to the “broken” K81C K83C negative control. ∗ represents a p value ≤0.05, ∗∗ is p ≤ 0.01, and ∗∗∗ is p ≤ 0.001.
(§2) The combined mutations were synergistic, with F303Y + A304W having a predicted additive effect of ca. Ten-fold, relative to the 73-fold seen.
(§3) GCaMP assays were performed as follows. P2X2 GCaMP strains were designed with a bi-cistronic reporter, in which the GCaMP protein was followed by a 2A peptide and a mScarletI reporter ([53]). The co-translated mScarletI was designed to act as a control for plasmid loss, GCaMP breakage via nonsense mutation, and contamination. […] P2X2-GCaMP strains were cultured and induced as previously described. Samples were induced for 24 h to allow for the accumulation of the mature GCaMP protein. Cells were washed three times in 0.1 M MES/Tris buffer and resuspended with MES/Tris with supplemental calcium. Cells were loaded onto a black, clear bottom microplate and imaged on a FlexStation3 plate reader. Samples were imaged in “flex” mode. Samples were imaged for 48 s at an interval of 1.6 s. Fluorescence was measured with an excitation at 485 nm, and emission 525 nm. At the 21 s mark, 100 μl ligand solution was transferred to the cells. For strains with mScarlet, fluorescence was read with excitation 570 nm/emission 610 nm. Slopes were calculated from the last 6 points of measurement and were normalized to the positive control samples. Any replicate in which the mScarlet value was measured to be over 2 standard deviations less than the mean for that set was discarded from further analysis.
(§4) For multiple comparisons in the site-saturation screening data, One-way ANOVA with Dunnett’s multiple comparisons test was performed where every sample was compared to the “broken” negative control. Significance was plotted where ∗ represents a p value ≤0.05, ∗∗ is p ≤0.01, and ∗∗∗ is p ≤0.001. Dose–response curves were fit with nonlinear regression software using a four-parameter logistic curve. All statistics were calculated and plotted in Graphpad Prism software.

[2] = molecular target: T2, P2X2 F303Y+A304W (Homo sapiens, UniProt Q9UBL9, A304W/F303Y); assay: Fast GCaMP-mScarletI assay in yeast, P2X2 F303Y+A304W; assay type: cell-based; conditions: for Bottom, best fit value / Hillslope, best fit value / Top, best fit value: four-parameter logistic fit of ΔF/ΔT
T2 construct: expressed in transfected cells; host or cells: S. cerevisiae BY4741 background
T2 sequence (Q9UBL9 1-471 F303Y/A304W): T1 sequence (Q9UBL9 1-471 F301W/F303Y) with W301F, A304W
Method: as §1, §2, §3, §4

| increased intracellular calcium amplitudes compared to the WT receptor ([2]; AMP-PNP, abstract) | increased signal compared to the WT channel (rate of signal onset ΔF/ΔT) ([2]; at 500 μM AMP-PNP) [fold] | SMILES | Bottom, best fit value [1] | Hillslope, best fit value [1] | Top, best fit value [1] | EC50 [1] [µM] | Bottom, best fit value ([2]; n = 3) | Hillslope, best fit value ([2]; n = 3) | Top, best fit value ([2]; n = 3) | EC50 ([2]; four-parameter logistic fit, n = 3, unit inferred, unit M, read-out: EC50, best fit value) [µM] |
| --- | --- | --- | --- | --- | --- | --- | --- | --- | --- | --- |
| over 100 fold | 73 | Nc1ncnc2c1ncn2[C@@H]1O[C@H](COP(=O)(O)OP(=O)(O)NP(=O)(O)O)[C@@H](O)[C@H]1O [AMP-PNP] | 0.3038 | 1.304 | 12.6 | 260 | 1.254 | 2.515 | 114.4 |  |
|  |  | Nc1ncnc2c1ncn2[C@@H]1O[C@H](COP(=O)(O)OP(=O)(O)OP(=O)(O)O)[C@@H](O)[C@H]1O [ATP] | -0.11 | 0.81 | 46.60 | 3.01 | 1.98 | 3.50 | 150.00 | 6.67 |
